Values quoted from earlier work as cited in PubChem BioAssay AID1259409 (Chemical Carcinogenesis Research Information System (CCRIS), 2018).

Tested on: rodent chemically induced tumor inhibition, incidence and multiplicity
Test: CCRIS tumor inhibitor studies
Settings: Carcinogen: AZOXYMETHANE; 25843-45-2; Dose [Inhibitor]: 0; 0.7 ML 2/WK FOR DURATION OF STUDY BEGINNING 1 D PRIOR TO FIRST CARCINOGEN DOSE (STUDY DURATION: 36 WK); Route [Inhibitor]: GAVAGE; Species: RAT; Strain/Sex: F344/MALE; Target Tissue: Type of Lesion: COLON/RECTUM: ADENOMA OR CARCINOMA; Dose [Carcinogen]: 15 MG/KG 1/WK FOR 2 WK; Promoter: NONE USED

## CCCCCCCCC/C=C/C=C/C=C/C=C/C=C/C=C/C(=O)OCC
  tumour outcome (control, treated, inhibition, significance): 20/40 (50%), 15/33 (45%), 10%, not significant
